From the NIST ThermoML archive (doi:10.1021/je060271a)
Numbers after ± are expanded uncertainties.

Settings: 303.15 K, Liquid, Vibrating tube method

**Q.** Which results are given for `CCCCC(=O)OCC(COC(=O)CCCC)(COC(=O)CCCC)COC(=O)CCCC` [pentaerythritol tetrapentanoate]?
**A.** mass density (24416 kPa): 1025.8 ± 1.2 kg/m3; mass density (24455 kPa): 1025.9 ± 1.2 kg/m3; mass density (24486 kPa): 1025.8 ± 1.2 kg/m3; mass density (24518 kPa): 1026 ± 1.2 kg/m3; mass density (24556 kPa): 1025.8 ± 1.2 kg/m3; mass density (24588 kPa): 1025.8 ± 1.2 kg/m3; mass density (24618 kPa): 1026.1 ± 1.2 kg/m3; mass density (24648 kPa): 1025.9 ± 1.2 kg/m3; mass density (24685 kPa): 1026.1 ± 1.2 kg/m3; mass density (24717 kPa): 1026 ± 1.2 kg/m3; mass density (24757 kPa): 1026 ± 1.2 kg/m3; mass density (24790 kPa): 1025.9 ± 1.2 kg/m3; mass density (24823 kPa): 1026.1 ± 1.2 kg/m3; mass density (24863 kPa): 1026.1 ± 1.2 kg/m3; mass density (24893 kPa): 1026.2 ± 1.2 kg/m3; mass density (24922 kPa): 1026 ± 1.2 kg/m3; mass density (24956 kPa): 1026.1 ± 1.2 kg/m3; mass density (24986 kPa): 1026.1 ± 1.2 kg/m3; mass density (25015 kPa): 1026.2 ± 1.2 kg/m3; mass density (25045 kPa): 1026.1 ± 1.2 kg/m3; mass density (25080 kPa): 1026.2 ± 1.2 kg/m3; mass density (25109 kPa): 1026.2 ± 1.2 kg/m3; mass density (25144 kPa): 1026.2 ± 1.2 kg/m3; mass density (25174 kPa): 1026.2 ± 1.2 kg/m3; mass density (25203 kPa): 1026.3 ± 1.2 kg/m3; mass density (25233 kPa): 1026.4 ± 1.2 kg/m3; mass density (25269 kPa): 1026.3 ± 1.2 kg/m3; mass density (25298 kPa): 1026.2 ± 1.2 kg/m3; mass density (25328 kPa): 1026.3 ± 1.2 kg/m3; mass density (25364 kPa): 1026.3 ± 1.2 kg/m3; mass density (25394 kPa): 1026.4 ± 1.2 kg/m3; mass density (25430 kPa): 1026.2 ± 1.2 kg/m3; mass density (25460 kPa): 1026.4 ± 1.2 kg/m3; mass density (25490 kPa): 1026.3 ± 1.2 kg/m3; mass density (25527 kPa): 1026.3 ± 1.2 kg/m3; mass density (25558 kPa): 1026.5 ± 1.2 kg/m3; mass density (25588 kPa): 1026.4 ± 1.2 kg/m3; mass density (25624 kPa): 1026.5 ± 1.2 kg/m3; mass density (25654 kPa): 1026.6 ± 1.2 kg/m3; mass density (25686 kPa): 1026.6 ± 1.2 kg/m3; mass density (25753 kPa): 1026.5 ± 1.2 kg/m3; mass density (25785 kPa): 1026.6 ± 1.2 kg/m3; mass density (25816 kPa): 1026.6 ± 1.2 kg/m3; mass density (25854 kPa): 1026.6 ± 1.2 kg/m3; mass density (25885 kPa): 1026.7 ± 1.2 kg/m3; mass density (25916 kPa): 1026.7 ± 1.2 kg/m3; mass density (25954 kPa): 1026.8 ± 1.2 kg/m3; mass density (25985 kPa): 1026.7 ± 1.2 kg/m3; mass density (26023 kPa): 1026.6 ± 1.2 kg/m3; mass density (26054 kPa): 1026.7 ± 1.2 kg/m3; mass density (26086 kPa): 1026.8 ± 1.2 kg/m3; mass density (26119 kPa): 1026.7 ± 1.2 kg/m3; mass density (26157 kPa): 1026.8 ± 1.2 kg/m3; mass density (26190 kPa): 1026.8 ± 1.2 kg/m3; mass density (26222 kPa): 1027 ± 1.2 kg/m3; mass density (26261 kPa): 1026.9 ± 1.2 kg/m3; mass density (26294 kPa): 1026.9 ± 1.2 kg/m3; mass density (26326 kPa): 1027 ± 1.2 kg/m3; mass density (26365 kPa): 1027 ± 1.2 kg/m3; mass density (26398 kPa): 1026.9 ± 1.2 kg/m3; mass density (26431 kPa): 1027 ± 1.2 kg/m3; mass density (26469 kPa): 1027 ± 1.2 kg/m3; mass density (26503 kPa): 1027 ± 1.2 kg/m3; mass density (26536 kPa): 1027 ± 1.2 kg/m3; mass density (26575 kPa): 1027.2 ± 1.2 kg/m3; mass density (26609 kPa): 1027 ± 1.2 kg/m3; mass density (26642 kPa): 1027 ± 1.2 kg/m3; mass density (26686 kPa): 1027.2 ± 1.2 kg/m3; mass density (26712 kPa): 1027.1 ± 1.2 kg/m3; mass density (26753 kPa): 1027.2 ± 1.2 kg/m3; mass density (26787 kPa): 1027.1 ± 1.2 kg/m3; mass density (26822 kPa): 1027.2 ± 1.2 kg/m3; mass density (26863 kPa): 1027.3 ± 1.2 kg/m3; mass density (26897 kPa): 1027.2 ± 1.2 kg/m3; mass density (26931 kPa): 1027.2 ± 1.2 kg/m3; mass density (26966 kPa): 1027.3 ± 1.2 kg/m3; mass density (27007 kPa): 1027.3 ± 1.2 kg/m3; mass density (27042 kPa): 1027.2 ± 1.2 kg/m3; mass density (27077 kPa): 1027.3 ± 1.2 kg/m3; mass density (27119 kPa): 1027.3 ± 1.2 kg/m3; mass density (27156 kPa): 1027.3 ± 1.2 kg/m3; mass density (27191 kPa): 1027.3 ± 1.2 kg/m3; mass density (27233 kPa): 1027.5 ± 1.2 kg/m3; mass density (27268 kPa): 1027.3 ± 1.2 kg/m3; mass density (27303 kPa): 1027.5 ± 1.2 kg/m3; mass density (27338 kPa): 1027.4 ± 1.2 kg/m3; mass density (27381 kPa): 1027.4 ± 1.2 kg/m3; mass density (27416 kPa): 1027.6 ± 1.2 kg/m3; mass density (27452 kPa): 1027.5 ± 1.2 kg/m3; mass density (27495 kPa): 1027.6 ± 1.2 kg/m3; mass density (27531 kPa): 1027.5 ± 1.2 kg/m3; mass density (27574 kPa): 1027.6 ± 1.2 kg/m3; mass density (27611 kPa): 1027.7 ± 1.2 kg/m3; mass density (27647 kPa): 1027.7 ± 1.2 kg/m3; mass density (27683 kPa): 1027.6 ± 1.2 kg/m3; mass density (27727 kPa): 1027.6 ± 1.2 kg/m3; mass density (27763 kPa): 1027.7 ± 1.2 kg/m3; mass density (27800 kPa): 1027.6 ± 1.2 kg/m3; mass density (27844 kPa): 1027.8 ± 1.2 kg/m3; mass density (27881 kPa): 1027.8 ± 1.2 kg/m3; mass density (27919 kPa): 1027.7 ± 1.2 kg/m3; mass density (27964 kPa): 1027.8 ± 1.2 kg/m3; mass density (28003 kPa): 1027.8 ± 1.2 kg/m3; mass density (28041 kPa): 1027.8 ± 1.2 kg/m3; mass density (28089 kPa): 1027.9 ± 1.2 kg/m3; mass density (28128 kPa): 1027.9 ± 1.2 kg/m3; mass density (28160 kPa): 1027.9 ± 1.2 kg/m3; mass density (28193 kPa): 1027.8 ± 1.2 kg/m3; mass density (28221 kPa): 1027.9 ± 1.2 kg/m3; mass density (28249 kPa): 1028 ± 1.2 kg/m3; mass density (28282 kPa): 1028 ± 1.2 kg/m3; mass density (28310 kPa): 1028 ± 1.2 kg/m3; mass density (28338 kPa): 1028 ± 1.2 kg/m3; mass density (28366 kPa): 1028 ± 1.2 kg/m3; mass density (28399 kPa): 1028 ± 1.2 kg/m3; mass density (28427 kPa): 1027.9 ± 1.2 kg/m3; mass density (28461 kPa): 1028.1 ± 1.2 kg/m3; mass density (28489 kPa): 1028 ± 1.2 kg/m3; mass density (28518 kPa): 1028.1 ± 1.2 kg/m3; mass density (28546 kPa): 1028.1 ± 1.2 kg/m3; mass density (28580 kPa): 1028 ± 1.2 kg/m3; mass density (28609 kPa): 1028.1 ± 1.2 kg/m3; mass density (28638 kPa): 1028.2 ± 1.2 kg/m3; mass density (28672 kPa): 1028.1 ± 1.2 kg/m3; mass density (28700 kPa): 1028.2 ± 1.2 kg/m3; mass density (28729 kPa): 1028.2 ± 1.2 kg/m3; mass density (28764 kPa): 1028.3 ± 1.2 kg/m3; mass density (28792 kPa): 1028.2 ± 1.2 kg/m3; mass density (28821 kPa): 1028.3 ± 1.2 kg/m3; mass density (28856 kPa): 1028.3 ± 1.2 kg/m3; mass density (28885 kPa): 1028.5 ± 1.2 kg/m3; mass density (28915 kPa): 1028.3 ± 1.2 kg/m3; mass density (28950 kPa): 1028.4 ± 1.2 kg/m3; mass density (28978 kPa): 1028.3 ± 1.2 kg/m3; mass density (29008 kPa): 1028.4 ± 1.2 kg/m3; mass density (29043 kPa): 1028.4 ± 1.2 kg/m3; mass density (29072 kPa): 1028.4 ± 1.2 kg/m3; mass density (29102 kPa): 1028.5 ± 1.2 kg/m3; mass density (29132 kPa): 1028.5 ± 1.2 kg/m3; mass density (29168 kPa): 1028.4 ± 1.2 kg/m3; mass density (29198 kPa): 1028.4 ± 1.2 kg/m3; mass density (29228 kPa): 1028.5 ± 1.2 kg/m3; mass density (29264 kPa): 1028.6 ± 1.2 kg/m3; mass density (29294 kPa): 1028.6 ± 1.2 kg/m3; mass density (29325 kPa): 1028.5 ± 1.2 kg/m3; mass density (29356 kPa): 1028.5 ± 1.2 kg/m3; mass density (29392 kPa): 1028.5 ± 1.2 kg/m3; mass density (29422 kPa): 1028.6 ± 1.2 kg/m3; mass density (29453 kPa): 1028.6 ± 1.2 kg/m3; mass density (29483 kPa): 1028.6 ± 1.2 kg/m3; mass density (29520 kPa): 1028.7 ± 1.2 kg/m3; mass density (29550 kPa): 1028.7 ± 1.2 kg/m3; mass density (29587 kPa): 1028.7 ± 1.2 kg/m3; mass density (29617 kPa): 1028.6 ± 1.2 kg/m3; mass density (29648 kPa): 1028.8 ± 1.2 kg/m3; mass density (29684 kPa): 1028.7 ± 1.2 kg/m3; mass density (29716 kPa): 1028.7 ± 1.2 kg/m3; mass density (29749 kPa): 1028.8 ± 1.2 kg/m3; mass density (29779 kPa): 1028.8 ± 1.2 kg/m3; mass density (29810 kPa): 1028.8 ± 1.2 kg/m3
